The pKd is the Kd on a negative log10 scale, so that one unit is a factor of ten.

Results on 1 compound are retold here after patent US7985761B2, “Diphenylurea derivatives and their use as chloride channel blockers or BKCa channel modulators” (Neurosearch A/S, priority 2006, dated 2011).

What all share (assay type): cell-based
For experiment [1], the system named is human erythrocyte chloride channels. Nature of the experiment: In vitro human erythrocyte chloride conductance. The note with it: read-out: IC50 value - the concentration at which 50% of the chloride channels are blocked. Here is the method:
In Vitro Human Erythrocyte Chloride Conductance
The chloride conductance was measured according to the proceeding as described in the “Biology” paragraph of the specification of WO 00/24707. The parameter calculated from these studies is the IC50 value—the concentration at which 50% of the chloride channels are blocked.

Experiment [2] deals with T1, Volume Regulated Anion Channel (VRAC) (Homo sapiens, UniProt Q8IWT6).
T1 construct: endogenous in cells; host or cells: HEK293
T1 sequence (Q8IWT6 1-810): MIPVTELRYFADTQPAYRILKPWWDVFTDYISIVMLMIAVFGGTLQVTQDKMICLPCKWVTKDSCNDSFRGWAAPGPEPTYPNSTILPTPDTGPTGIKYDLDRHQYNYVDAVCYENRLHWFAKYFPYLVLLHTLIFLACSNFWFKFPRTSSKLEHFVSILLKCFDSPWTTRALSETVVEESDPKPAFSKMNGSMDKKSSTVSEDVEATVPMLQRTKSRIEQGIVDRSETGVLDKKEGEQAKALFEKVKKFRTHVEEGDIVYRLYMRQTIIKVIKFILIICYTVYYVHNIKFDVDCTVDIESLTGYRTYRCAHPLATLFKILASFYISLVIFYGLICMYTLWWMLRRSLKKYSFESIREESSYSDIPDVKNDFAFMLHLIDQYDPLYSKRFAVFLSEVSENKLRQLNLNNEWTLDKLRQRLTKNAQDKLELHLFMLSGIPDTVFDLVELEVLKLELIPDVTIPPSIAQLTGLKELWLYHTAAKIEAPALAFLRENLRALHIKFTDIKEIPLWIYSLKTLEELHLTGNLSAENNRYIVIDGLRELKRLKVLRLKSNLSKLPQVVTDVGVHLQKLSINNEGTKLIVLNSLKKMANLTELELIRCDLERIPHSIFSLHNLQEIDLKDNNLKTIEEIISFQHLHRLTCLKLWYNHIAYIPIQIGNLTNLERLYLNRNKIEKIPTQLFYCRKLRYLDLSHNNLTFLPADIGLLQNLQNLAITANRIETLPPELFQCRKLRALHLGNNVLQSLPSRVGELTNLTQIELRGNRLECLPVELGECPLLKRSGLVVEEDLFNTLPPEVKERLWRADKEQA
The experiment can be described thus: Volume Regulated Anion Channel (VRAC) effect, whole cell patch clamp in HEK293 cells. The following applies: VRAC activated by swelling in hypotonic (75% tonicity) extracellular solution, read-out: KD value (time dependent block of VRAC current). Here is the method: Volume Regulated Anion Channel (VRAC) Effect
The activity on the Volume Regulated Anion Channel (VRAC) was tested by the whole cell patch clamp technique using Human Embryonic Kidney cells (HEK293) as described in Helix et al, J Membr Biol. 2003 196(2):83-94, In short, VRAC was activated by swelling of the cell in hypotonic (75% tonicity) extracellular salt solution and the anion current elicited by voltage ramps was measured vs. time. After stabilization of the current the compound to be tested was added to the extracellular solution and the time dependent block was followed for calculation of the KD value.

A further experiment addresses T2, human BK channels (Homo sapiens, UniProt Q12791).
T2 construct: expressed in transfected cells; host or cells: Xenopus oocytes
Nature of the experiment: Human BK channel screening, two-electrode voltage clamp in Xenopus oocytes. The following applies: 0.3 μM test compound, Xenopus oocytes expressing human BK channels. Here is the method: Human BK Channel Screening
The influence of a compound on the membrane currents was determined electrophysiologically on Xenopus Oocytes capable of expressing human BK channels, and the current through the channels was recorded using the classical two-electrode voltage clamp technique.
The first compound of Example 4, N-(3,5-Difluoro-phenyl)-N′-[3-(5-oxo-4,5-dihydro-[1,2,4]oxadiazol-3-yl)-4′-trifluoromethyl-biphenyl-4-yl]urea, was subjected to this determination at a concentrations of 0.3 μM of test compound, and it caused an increase of BK current relative to the basal current of more than 200%.
In general terms: In two-electrode clamp one electrode senses voltage and the other passes current.

Structures are written as SMILES. pIC50, pKd: −log10 of the molar value.

T2 sequence (Q12791 whole entry): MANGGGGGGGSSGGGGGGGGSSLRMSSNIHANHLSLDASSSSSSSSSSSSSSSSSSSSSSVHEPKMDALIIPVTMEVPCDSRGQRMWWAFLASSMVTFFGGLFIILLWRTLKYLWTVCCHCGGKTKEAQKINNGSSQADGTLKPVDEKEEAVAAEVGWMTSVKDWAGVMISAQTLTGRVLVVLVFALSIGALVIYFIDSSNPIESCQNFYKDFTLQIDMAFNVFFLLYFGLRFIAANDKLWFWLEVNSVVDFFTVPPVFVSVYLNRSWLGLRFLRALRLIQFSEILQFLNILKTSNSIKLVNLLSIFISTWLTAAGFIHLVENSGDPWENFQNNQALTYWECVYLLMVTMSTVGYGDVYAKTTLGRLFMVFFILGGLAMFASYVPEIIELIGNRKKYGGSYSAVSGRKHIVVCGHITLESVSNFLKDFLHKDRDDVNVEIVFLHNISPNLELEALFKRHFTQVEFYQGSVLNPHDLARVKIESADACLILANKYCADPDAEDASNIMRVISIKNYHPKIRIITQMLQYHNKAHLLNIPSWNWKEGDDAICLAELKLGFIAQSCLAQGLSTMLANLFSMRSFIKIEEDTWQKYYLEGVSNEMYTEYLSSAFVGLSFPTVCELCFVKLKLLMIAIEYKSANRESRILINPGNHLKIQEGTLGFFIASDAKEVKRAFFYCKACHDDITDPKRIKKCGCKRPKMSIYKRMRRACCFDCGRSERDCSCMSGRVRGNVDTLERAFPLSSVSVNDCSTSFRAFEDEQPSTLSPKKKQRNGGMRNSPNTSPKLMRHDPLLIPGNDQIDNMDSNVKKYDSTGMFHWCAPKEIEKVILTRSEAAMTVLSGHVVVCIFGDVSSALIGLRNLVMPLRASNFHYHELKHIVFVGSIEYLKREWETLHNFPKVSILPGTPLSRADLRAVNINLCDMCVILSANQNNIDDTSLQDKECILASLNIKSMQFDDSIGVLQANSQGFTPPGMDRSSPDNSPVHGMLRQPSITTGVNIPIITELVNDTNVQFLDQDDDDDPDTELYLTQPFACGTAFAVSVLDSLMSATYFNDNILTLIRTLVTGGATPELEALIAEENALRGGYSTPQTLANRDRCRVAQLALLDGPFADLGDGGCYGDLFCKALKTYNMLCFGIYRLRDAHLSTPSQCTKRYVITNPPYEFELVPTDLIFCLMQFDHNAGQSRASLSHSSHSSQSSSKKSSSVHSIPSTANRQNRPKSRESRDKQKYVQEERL

With `O=C(Nc1cc(F)cc(F)c1)Nc1ccc(-c2ccc(C(F)(F)F)cc2)cc1-c1noc(=O)[nH]1` [first compound of Example 4, N-(3,5-Difluoro-phenyl)-N′-[3-(5-oxo-4,5-dihydro-[1,2,4]oxadiazol-3-yl)-4′-trifluoromethyl-biphenyl-4-yl]urea], the pIC50 in experiment [1] is 6.55. The pKd in experiment [2] was 6.64. In addition, the “increase of BK current relative to the basal current” value on human BK channels was “more than 200%”.
